# Assay results published in paper PMC6013238, “Development of novel NEMO-binding domain mimetics for inhibiting IKK/NF-κB activation” (PLoS Biology, 2018).
# Values joined by “and” are separate entries in the source; they are usually repeats but may differ in a detail not shown here. Equal values may be shown once.
# Assays:
# [1] = system: IL-6 production; assay: Mouse IL-6 ELISA of supernatant of LPS-stimulated Raw 264.7 cells; format: cell-based; conditions: LPS 1 μg/ml 24 h; for mIL-6 in supernatant (ELISA): Fig 4D; for Effect on LPS-induced IL-6 production (ELISA): 25 and 50 μM
# Protocol: Fig 4 Modified lead NBD mimetics inhibit TNF-α- and LPS-induced NF-κB activation by disrupting the association between NEMO and IKKβ. (A) Structures of top NBD mimetics. (B) Measurement of NF-κB activation in response to TNF-α by using Dual-luciferase reporter assays. HEK293 cells cotransfected with NF-κB luciferase reporter and SV40-Renilla plasmids were pretreated with DMSO or listed small molecules at 0, 25, 50, 100, and 150 μM for 30 min, followed by the induction of TNF-α for 3 h. Data shown are representative of 2–3 independent experiments. […] Raw 264.7 cells were pretreated with indicated drugs for 30 min and then stimulated with 1 μg/ml of LPS for 2 h. Cells were then harvested for RNA extraction and qRT-PCR analysis. Drug concentrations used are as follows: IKKi VII (2 μM), 8K-NBD peptide (200 μM), SR12343 (50 μM), SR12460 (50 μM), SR12454 (50 μM), and SR11481 (50 μM). Data are representative of 2 independent experiments. […] Raw 264.7 cells pretreated with DMSO or drugs at indicated concentrations were exposed to 1 μg/ml of LPS for 24 h, and supernatant was collected for ELISA analysis of mouse IL-6. *P < 0.05; **P < 0.01. Underlying data can be found in S1 Data. HEK293, human embryonic kidney 293 cells; IKK, IκB kinase; IL-6, interleukin 6; LPS, lipopolysaccharide; NBD, NEMO-binding domain; n.d., nondetectable; NEMO, NF-κB essential modulator; NF-κB, nuclear factor κB; qRT-PCR, […] real-time polymerase chain reaction; TNF-α; tumor necrosis factor α. TEXT PRINTED IN THE PICTURE: (D) ikki VII: mIL-6 (ng/ml): n.d. | (D) SR12460: mIL-6 (ng/ml): n.d. (50μM) | (D) SR12454: mIL-6 (ng/ml): n.d. (50μM) DOUBTS OF THE COPYIST ABOUT THIS PICTURE: Panel D: the only printed results are the three "n.d." labels. They stand in place of bars and are assigned to ikki VII, SR12460 50μM and SR12454 50μM by their position on the axis. All other results are shown only as bars, with no printed numbers.
# To confirm the qRT-PCR results, the levels of IL-6 production in Raw 264.7 cells activated by LPS were analyzed by ELISA.
# Raw 264.7 cells were grown in 96-well plates and pretreated with vehicle, IKKi VII (2 μM), and small molecules (at indicated concentration) for 1 h, followed by the stimulation with 1 μg/ml of LPS. Supernatant was collected 24 h later for ELISA analysis. IL-6 concentration was measured using a mouse IL-6 ELISA kit (BD) according to the manufacturer’s instructions.
# [2] = system: mdx mice; assay: Chronic treatment of mdx mice, hematoxylin-eosin histology of TA muscle; format: in vivo, mouse; conditions: SR 30 mg/kg; for Percentage of area exhibiting necrosis or infiltration, TA muscle: Fig 7C, 8K-NBD 10 mg/kg i.p. 3 times/wk for 4 wk, single mice; for Muscle pathology of TA muscle (hematoxylin-eosin): 8K-NBD 10 mg/kg, 3 times/wk 4 wk
# From the text: Fig 7 NBD mimetics improve muscular pathology and grip strength in mdx mice. (A) Shown is the treatment regimen with NBD mimetics in mdx mice. (B) Hematoxylin–eosin staining of TA muscle from 7-wk-old, treated or untreated mdx mice. Images were taken at magnification of 20×. Representative images were shown for each treatment group. […] (E) TA muscle from 7-wk-old, treated or untreated mdx mice was stained with laminin by IHC to outline myofibers. Overall images of TA muscle were shown on the left side, and the inset panel images were shown on the right side. (F) Quantitation of minimum Feret diameter in centrally and noncentrally nucleated myofibers. (G) Forelimb force determined by grip strength test. Five-wk-old (2 wk post treatment) and 7-wk-old (4 wk post treatment) mdx mice, treated or untreated, were tested for forelimb grip strength. Five sequential tests were performed, and the force was normalized to body weight. Data were shown as mean +/− SEM. Dosages used are as follows: SR12343 (30 mg/kg), SR12460 (30 mg/kg), and 8K-NBD peptide (10 mg/kg). n = 6–7 each group. *P < 0.05, **P < 0.01. Underlying data can be found in S1 Data. eMyHC, embryonic myosin heavy chain; IHC, immunohistochemistry; NBD, NEMO-binding domain; NEMO, NF-κB essential modulator; Pax7, paired box protein 7; qRT-PCR, quantitative real-time polymerase chain reaction; TA, tibialis anterior.
# To determine whether SR12343 and SR12460 improve muscle pathology, TA muscle was stained with hematoxylin–eosin to assess inflammatory infiltration, necrosis, central nucleation, and fibrosis. […] In addition, Masson trichrome stain was conducted to further measure muscle fibrosis. Chronic treatment with SR12343 reduced muscle fibrosis (blue) in diaphragm and TA muscle tissues in comparison to control group (Fig 8A & 8B). To further quantitate the extent of inflammation in mdx muscle tissues, diaphragm and TA muscle were immunostained for cluster of differentiation 68 (CD68), a macrophage marker. Treatment with SR12343 reduced the number of CD68^+ cells by almost 50% per myofiber in both diaphragm and TA tissues (Fig 8A & 8B). […] To quantify the average fiber size in an unbiased way, TA muscle was stained with laminin to outline myofibers, and Feret diameter of all myocytes was quantitated in a whole muscle section.
# HEK293 cells and MEFs were grown in Dulbecco’s Modified Eagle Medium (with 4.5 g/L glucose and L-glutamine), supplemented with 10% fetal bovine serum, penicillin, and streptomycin. […]
# Supplementary file pbio.2004663.s005.tif: S4 Fig Chronic treatment with NBD mimetics improves muscle pathology by inhibiting NF-κB DNA binding activity in mdx mice. (A) Quantification of percentage of centralized myonuclei. […]
# [3] = Serum AST, ALT and ALP of chronically treated mdx mice; format: in vivo, mouse; conditions: for Liver toxicity (serum AST, ALT, ALP): chronically treated mdx mice, 30 mg/kg; for ALP Final Concentration / ALT Final Concentration / AST Final Concentration: serum, individual mouse (FigS3B)
smiles,measurement,setting,value
O=C(CNc1ccc(Cl)cn1)NCCc1cccc(Br)c1 [SR12343],mIL-6 in supernatant (ELISA),[1]; 25 μM,2.6915 ng/mL and 2.4446 ng/mL and 1.843 ng/mL
same,Effect on LPS-induced IL-6 production (ELISA),[1],"inhibited IL-6 production, but was not as effective as SR12460 and SR12454"
same,"Percentage of area exhibiting necrosis or infiltration, TA muscle",[2],2% and 3% and 0% and 1%
same,Muscle pathology of TA muscle (hematoxylin-eosin),[2],most significant pathological improvement
same,"Liver toxicity (serum AST, ALT, ALP)",[3],no overt liver toxicity
same,ALP Final Concentration,[3],170 U/L and 225 U/L and 145 U/L
same,ALT Final Concentration,[3],125 U/L and 160 U/L and 150 U/L and 260 U/L
same,AST Final Concentration,[3],775 U/L and 1030 U/L and 875 U/L and 1560 U/L
O=C(CNCCc1cc(F)cc(F)c1)Nc1ccc(Cl)cn1 [SR12460],mIL-6 in supernatant (ELISA),[1]; 25 μM,1.4838 ng/mL and 1.2369 ng/mL and 1.4569 ng/mL
same,mIL-6 in supernatant (ELISA),[1]; 50 μM,0 ng/mL
same,Effect on LPS-induced IL-6 production (ELISA),[1],inhibit IL-6 secretion significantly in a dose-dependent manner
same,"Percentage of area exhibiting necrosis or infiltration, TA muscle",[2],3% and 6%
same,Muscle pathology of TA muscle (hematoxylin-eosin),[2],"improved muscle pathology, although not as effectively as SR12343"
same,"Liver toxicity (serum AST, ALT, ALP)",[3],no overt liver toxicity
same,ALP Final Concentration,[3],195 U/L and 170 U/L and 160 U/L
same,ALT Final Concentration,[3],215 U/L and 185 U/L
same,AST Final Concentration,[3],1245 U/L and 1330 U/L and 1415 U/L
